Measurements: patent publication US10934296B2, “4-imidazopyridazin-1-yl-benzamides as Btk inhibitors” (Merck Sharp & Dohme B.V., priority 2011, dated 2021)

The compounds below were run against Btk enzyme (His-Btk) (Homo sapiens (Human), UniProt Q06187) (assay: Btk enzyme activity, IMAP fluorescence polarization assay). Conditions: 60 min pre-incubation, 5 μM ATP, bin bounds in nM.
Sequence of Btk enzyme (His-Btk) (Q06187 whole entry): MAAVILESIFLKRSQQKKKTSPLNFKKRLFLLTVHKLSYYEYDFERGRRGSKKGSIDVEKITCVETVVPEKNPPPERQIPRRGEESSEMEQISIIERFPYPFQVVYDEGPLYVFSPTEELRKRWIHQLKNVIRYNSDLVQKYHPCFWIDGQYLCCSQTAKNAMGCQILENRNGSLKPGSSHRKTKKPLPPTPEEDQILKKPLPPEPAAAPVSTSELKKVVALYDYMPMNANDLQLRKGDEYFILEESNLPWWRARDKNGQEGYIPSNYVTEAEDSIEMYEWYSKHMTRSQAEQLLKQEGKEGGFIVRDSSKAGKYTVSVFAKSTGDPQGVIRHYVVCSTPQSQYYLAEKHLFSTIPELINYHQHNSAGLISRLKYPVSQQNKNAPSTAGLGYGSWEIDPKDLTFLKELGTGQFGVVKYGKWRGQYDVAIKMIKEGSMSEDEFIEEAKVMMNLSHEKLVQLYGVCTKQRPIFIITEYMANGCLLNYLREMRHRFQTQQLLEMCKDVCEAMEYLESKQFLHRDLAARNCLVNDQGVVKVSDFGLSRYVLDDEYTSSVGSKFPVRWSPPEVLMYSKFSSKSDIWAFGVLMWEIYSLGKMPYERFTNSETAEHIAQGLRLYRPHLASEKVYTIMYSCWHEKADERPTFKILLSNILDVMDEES
For `COC/C=C/C(=O)NCc1nc(-c2ccc(C(=O)Nc3ccccn3)cc2)c2c(N)nccn12` [Example 95, (E)-4-(8-amino-3-((4-methoxybut-2-enamido)methyl)imidazo[1,5-a]pyrazin-1-yl)-N-(pyridin-2-yl)benzamide], the “EC50 Btk activity values” was <100 nM. `COC/C=C/C(=O)N1CCC[C@H]1c1nc(-c2ccc(C(=O)Nc3ccccn3)cc2)c2c(N)nccn12` [Example 4, (S,E)-4-(8-amino-3-(1-(4-methoxybut-2-enoyl)pyrrolidin-2-yl)imidazo[1,5-a]pyrazin-1-yl)-N-(pyridin-2-yl)benzamide] was tested, and the “EC50 Btk activity values” was <100 nM. With `COC/C=C/C(=O)N1CCC[C@H]1c1nc(-c2ccc(C(=O)Nc3ccccn3)c(OC)c2)c2c(N)nccn12` [Example 103, (S,E)-4-(8-amino-3-(1-(4-methoxybut-2-enoyl)pyrrolidin-2-yl)imidazo[1,5-a]pyrazin-1-yl)-2-methoxy-N-(pyridin-2-yl)benzamide] the “EC50 Btk activity values” was <100 nM. With `CC#CC(=O)N1CCC[C@H]1c1nc(-c2ccc(C(=O)Nc3ccccn3)c(F)c2)c2c(N)nccn12` [Example 50, (S)-4-(8-amino-3-(1-but-2-ynoylpyrrolidin-2-yl)imidazo[1,5-a]pyrazin-1-yl)-2-fluoro-N-(pyridin-2-yl)benzamide] the “EC50 Btk activity values” was <100 nM. For `CC#CC(=O)N1CCC[C@H]1c1nc(-c2ccc(C(=O)Nc3ccccn3)c(OC)c2)c2c(N)nccn12` [Example 99, (S)-4-(8-amino-3-(1-but-2-ynoylpyrrolidin-2-yl)imidazo[1,5-a]pyrazin-1-yl)-2-methoxy-N-(pyridin-2-yl)benzamide], the “EC50 Btk activity values” was <100 nM. For `COC/C=C/C(=O)N1CCCC[C@H]1c1nc(-c2ccc(C(=O)Nc3cc(F)ccn3)cc2)c2c(N)nccn12` [Example 81, (S,E)-4-(8-amino-3-(1-(4-methoxybut-2-enoyl)piperidin-2-yl)imidazo[1,5-a]pyrazin-1-yl)-N-(4-fluoropyridin-2-yl)benzamide], the “EC50 Btk activity values” was <100 nM. For `CN(C)CC#CC(=O)N1CCC[C@H]1c1nc(-c2ccc(C(=O)Nc3ccccn3)cc2)c2c(N)nccn12` [Example 40, (S)-4-(8-Amino-3-(1-(4-(dimethylamino)but-2-ynoyl)pyrrolidin-2-yl)imidazo[1,5-a]pyrazin-1-yl)-N-(pyridin-2-yl)benzamide], the “EC50 Btk activity values” was <100 nM. In the case of `CC#CC(=O)N(C)[C@@H](C)c1nc(-c2ccc(C(=O)Nc3cc(CCC)ccn3)cc2)c2c(N)nccn12` [Example 113, (S)-4-(8-amino-3-(1-(N-methylbut-2-ynamido)ethyl)imidazo[1,5-a]pyrazin-1-yl)-N-(4-propylpyridin-2-yl)benzamide], the “EC50 Btk activity values” is reported as <100 nM. With `CCc1ccnc(NC(=O)c2ccc(-c3nc([C@@H]4CCCN4C(=O)/C=C/COC)n4ccnc(N)c34)cc2)c1` [Example 11, (S,E)-4-(8-Amino-3-(1-(4-methoxybut-2-enoyl)pyrrolidin-2-yl)-imidazo[1,5-a]pyrazin-1-yl)-N-(4-ethylpyridin-2-yl)benzamide] the “EC50 Btk activity values” was <100 nM. With `COc1cc(-c2nc([C@@H]3CCCN3C(=O)c3ccnc(Cl)n3)n3ccnc(N)c23)ccc1C(=O)Nc1ccccn1` [Example 83, (S)-4-(8-amino-3-(1-(2-chloropyrimidine-4-carbonyl)pyrrolidin-2-yl)imidazo[1,5-a]pyrazin-1-yl)-2-methoxy-N-(pyridin-2-yl)benzamide] the “EC50 Btk activity values” was <100 nM. `Nc1nccn2c([C@@H]3CCCN3C(=O)c3ccnc(Cl)n3)nc(-c3ccc(C(=O)Nc4ccccn4)c(F)c3)c12` [Example 84, (S)-4-(8-amino-3-(1-(2-chloropyrimidine-4-carbonyl)pyrrolidin-2-yl)imidazo[1,5-a]pyrazin-1-yl)-2-fluoro-N-(pyridin-2-yl)benzamide] was tested, and the “EC50 Btk activity values” was <100 nM. For `COCC#CC(=O)N1CCC[C@H]1c1nc(-c2ccc(C(=O)Nc3ccccn3)cc2)c2c(N)nccn12` [Example 41, (S)-4-(8-Amino-3-(1-(4-methoxybut-2-ynoyl)pyrrolidin-2-yl)imidazo[1,5-a]pyrazin-1-yl)-N-(pyridin-2-yl)benzamide], the “EC50 Btk activity values” was <100 nM. `Nc1nccn2c([C@@H]3CCCN3C(=O)/C=C/CN3CCCC3)nc(-c3ccc(C(=O)Nc4ccccn4)cc3)c12` [Example 2, (S,E)-4-(8-amino-3-(1-(4-(pyrrolidin-1-yl)but-2-enoyl)pyrrolidin-2-yl)imidazo[1,5-a]pyrazin-1-yl)-N-(pyridin-2-yl)benzamide] was tested, and the “EC50 Btk activity values” was <100 nM. `CC#CC(=O)N1CCCC[C@H]1c1nc(-c2ccc(C(=O)Nc3ccon3)cc2)c2c(N)nccn12` [Example 24, (S)-4-(8-Amino-3-(1-but-2-ynoylpiperidin-2-yl)imidazo[1,5-a]pyrazin-1-yl)-N-(isoxazol-3-yl)benzamide] was tested, and the “EC50 Btk activity values” was <100 nM. In the case of `C[C@H](NC(=O)c1ccnc(Cl)n1)c1nc(-c2ccc(C(=O)Nc3ccccn3)cc2)c2c(N)nccn12` [Example 105, (S)-N-(1-(8-amino-1-(4-(pyridin-2-ylcarbamoyl)phenyl)imidazo[1,5-a]pyrazin-3-yl)ethyl)-2-chloropyrimidine-4-carboxamide], the “EC50 Btk activity values” is reported as <100 nM. For `CC#CC(=O)NCc1nc(-c2ccc(C(=O)Nc3ccccn3)cc2)c2c(N)nccn12` [Example 112, 4-(8-amino-3-(but-2-ynamidomethyl)imidazo[1,5-a]pyrazin-1-yl)-N-(pyridin-2-yl)benzamide], the “EC50 Btk activity values” was <100 nM. `Cc1cc(C(=O)Nc2ccccn2)ccc1-c1nc([C@@H]2CCCCN2C(=O)c2ccnc(Cl)n2)n2ccnc(N)c12` [Example 56, 4-(8-amino-3-((S)-1-(2-chloropyrimidine-4-carbonyl)piperidin-2-yl)imidazo[1,5-a]pyrazin-1-yl)-3-methyl-N-(pyridin-2-yl)benzamide] was tested, and the “EC50 Btk activity values” was <100 nM.

Same assay, conditions: 60 min pre-incubation, 5 μM ATP, bin bounds in μM
`COC/C=C/C(=O)N1CCCC[C@H]1c1nc(-c2ccc(C(=O)Nc3ccccn3)cc2C)c2c(N)nccn12` [Example 85, 4-(8-amino-3-((S)-1-((E)-4-methoxybut-2-enoyl)piperidin-2-yl)imidazo[1,5-a]pyrazin-1-yl)-3-methyl-N-(pyridin-2-yl)benzamide] was tested, and the “EC50 Btk activity values” was <1000 nM. For `C=C(C(=O)N1CCC[C@H]1c1nc(-c2ccc(C(=O)Nc3ccccn3)cc2)c2c(N)nccn12)C(F)(F)F` [Example 92, (S)-4-(8-amino-3-(1-(2-(trifluoromethyl)acryloyl)pyrrolidin-2-yl)imidazo[1,5-a]pyrazin-1-yl)-N-(pyridin-2-yl)benzamide], the “EC50 Btk activity values” was <1000 nM. For `COC/C=C/C(=O)N1CCCC[C@H]1c1nc(-c2ccc(C(=O)Nc3cccnn3)cc2)c2c(N)nccn12` [Example 72, (S,E)-4-(8-amino-3-(1-(4-methoxybut-2-enoyl)piperidin-2-yl)imidazo[1,5-a]pyrazin-1-yl)-N-(pyridazin-3-yl)benzamide], the “EC50 Btk activity values” was <1000 nM. For `CCCc1ccnc(NC(=O)c2ccc(-c3nc([C@@H]4CCCN4C(=O)/C=C/COC)n4ccnc(N)c34)c(C)c2)c1` [Example 87, 4-(8-amino-3-((S)-1-((E)-4-methoxybut-2-enoyl)pyrrolidin-2-yl)imidazo[1,5-a]pyrazin-1-yl)-3-methyl-N-(4-propylpyridin-2-yl)benzamide], the “EC50 Btk activity values” was <1000 nM.
